Laboratory results published in patent US4225619A, “Substituted fluoracylresorcinols” (Boehringer Ingelheim GmBH, priority 1976, dated 1980).
≈ marks a conversion by molar mass, not a printed value.

Legend:
Corynebacterium acnes = test: Serial dilution test for Corynebacterium acnes; format: cell-based; settings: for MIC: Cutibacterium acnes, 37° C. for 48 hours, read-out: MIC, S.D.T., Corynebacterium acnes
Procedure: Serial dilution test for Corynebacterium acnes and Pityrosporum ovale Nutrient medium
For Corynebacterium acnes: thioglycolate-broth for Pityrosporum ovale: Littmann's broth, 5 ml per tube.
Suspension of microorganisms in 0.9% sodium chloride solution, standardized using a photometer according to Eppendorf by means of a suspension for comparison consisting of barium sulfate, for Corynebacterium acnes in a dilution of 1:100, for Pityrosporum ovale in an undiluted state. 0.1 ml of the suspensions was used per test tube. Dimethyl sulfoxide served as a solvent for the substances.
The suspension with Corynebacteria acnes was incubated at 37° C. for 48 hours, the suspension of Pityrosporum ovale at 27° C. for 7 days. The reading was effected by macroscopic evaluation of the growth of microorganisms and registration of the minimal inhibitory concentration.

[1] = tested on: Candida albicans AT CC 10231; test: Serial dilution test; format: cell-based; settings: for MIC: Candida albicans, ATCC10231, 168 h, 27° C. for 7 days, read-out: MIC, S.D.T., Candida albicans
Procedure: (§1) The inhibitory effect on bacteria and fungi was examined by the serial dilution test and the agar diffusion test (hole-test). As bacteria were used: Staphylococcus aureus SG 511, Streptococcus Aronson, Streptococcus pyogenes At CC 86 68; as fungi: Candida albicans AT CC 10231, Trichophyton mentagrophytes AT CC 9129 and Aspergillus niger.
(§2) 3. Sabouraud broth: for C. alb., Trich. mnt., A. niger
(§3) The age of the primary cultures is 24 hours for bacteria and 14 days for fungi. The standardization of the suspension of microorganisms is effected using a photometer according to Eppendorf (test tube .phi.14 mm, filter 546 nm) and a suspension for comparison consisting of barium sulfate, this suspension being created by adition of 3.0 ml of 1% barium chloride solution to 97 ml of 1% sulfuric acid. After the standardization the bacteria were further diluted to a concentration of 1:1000 by means of sodium chloride solution, the fungi were used in an undiluted state.
(§4) 40 mgm of the substance were put into a 10 ml measuring flask and filled up to the mark with the solvent (corresponds to a dilution of 1:250=4000 μg/ml). The further dilution series was standardized with distilled water or the respective solvent and the following substance concentrations were prepared: 1000; 250; 62.5 μg/ml.
(§5) The tubes were filled with 4.9 ml of the corresponding liquid nutrient medium. Then 0.1 ml of the substance dilution prepared above was added to each tube, so that the mentioned final concentrations were present. Finally each tube was inoculated with 0.1 ml of the standardized suspension of microorganisms. Control tests merely using the solvent are to be carried out simultaneously.
(§6) Bacteria were incubated at 37° C. for 18-20 hours and fungi at 27° C. for 7 days.
(§7) The measurement is carried out macroscopically defining the minimal inhibitory concentration (the lowest still microbiostatically effective concentration).

[2] = tested on: Trichophyton mentagrophytes AT CC 9129; test: Serial dilution test; format: cell-based; settings: ATCC9129, 168 h, 27° C. for 7 days, read-out: MIC, S.D.T., Trichophyton mentagrophytes
Procedure: as §1, §2, §3, §4, §5, §6, §7

Aspergillus niger = test: Serial dilution test; format: cell-based; settings: for MIC: Aspergillus niger, 168 h, 27° C. for 7 days, read-out: MIC, S.D.T., Aspergillus niger
Procedure: as §1, §2, §3, §4, §5, §6, §7

[3] = biological target: glucose-6-phosphate-dehydrogenase; test: Inhibition of glucose-6-phosphate-dehydrogenase (G6PDH); format: biochemical; settings: for G6PDH-inhibition Ed50, Immediate Inhibition: 25° C. for 5 minutes preincubation; for G6PDH-inhibition Ed50, Inhibition of Incubation: 37° C. for 60 minutes preincubation
Procedure: Measurement of the inhibition of the glucose-6-phosphatedehydrogenase
The equilibrium was observed:
Glucose-6-phosphate+NADP^+ G6-DH gluconic
acid-6-phosphate+NADPH+H^+
(NADP=nicotinamide-adenine-dinycleotide-phosphate, G6P-DH=gluconic acid-6-phosphate-dehydrogenase)
The formation velocity of NADPH is a measure for the enzyme activity; it may be observed by means of the extinction increase at 340, 334 or 366 nm per unit of time.
0.025 ml of glucose-6-phosphate-dehydrogenase (Boehringer Mannheim) were filled up to 10 ml of distilled water (solution I). 100 mgm of nicotinamide-adenine-dinucleotide-phosphate were dissolved in 13 ml of distilled water (solution II). 47.2 mgm of glucose-6-phosphate were dissolved in further 10 ml of distilled water (solution 3). Simultaneously a buffer solution (solution IV) was prepared as follows: 0.28 gm of triethanolamine-hydrochloride and 1.461 gm of ethylene diaminotetraacetic acid-disodium salt were dissolved in 1 liter of distilled water and adjusted to a pH of 7.6 with sodium hydroxide solution. The substance under test was dissolved in dimethyl formamide or ethanol (solution V). Tested concentrations: 50; 25; 12.5; 6.25; 3.125; 1.56 and 0.78 μg/ml.
0.1 ml of solution I, 0.1 ml of solution II, 2.67 ml of solution IV and 0.03 ml of solution V were mixed and kept at 25° C. for 5 minutes. Then 0.1 ml of solution III was added, mixed and the alteration of extinction was determined spectrophotometrically at 366 nm for 3 minutes.
0.1 ml of solution I, 0.1 ml of solution II, 2.67 ml of solution IV and 0.03 ml of solution V were mixed and kept at 37° C. for 60 minutes. Then 0.1 ml of solution III was added, mixed and the alteration of extinction was measured spectrophotometrically at 366 nm for 3 minutes.
The inhibitory values were calculated from the average values of three measurements (alteration of extinction per minute) compared with controls, which received the pure solvent as the inhibitory solution. Then the ED50 was calculated according to Reed and Muench from the inhibitory values for the various concentrations.

[4] = tested on: Pityrosporum ovale CBS 1878; test: Agar diffusion test for Pityrosporum ovale CBS 1878; format: cell-based; settings: Malassezia furfur, CBS1878, 168 h, 7 days at 27° C., read-out: MIC, A.D.T., Pityrosporum ovale
Procedure: Agar diffusion test for Pityrosporum ovale CBS 1878 Nutrient medium
Littmann's agar, 23 ml per Petri dish, diameter of dish 100 mm.
Suspension of microorganisms in 0.9% sodium chloride solution, standardized using a photometer according to Eppendorf by means of a suspension for comparison consisting of barium sulfate. 0.05 ml per plate were used. The test substances were dissolved in dimethyl sulfoxide. The incubation time was 7 days at 27° C.; the area of inhibition in mm was measured, 0.05 ml of the solution of the substance were used for each punch-hole of a diameter of 6 mm. The results of these tests are recorded in the following tables 1 and 2: […]

Streptococcus Aronson = test: Serial dilution test; format: cell-based; settings: Streptococcus, 18-20 hours at 37° C., read-out: MIC, S.D.T., Streptococcus Aronson
Procedure: as §1
(§8) 2. Glucose broth: for Sc. Aronson and St. pyogenes Recipe see meat extract broth. After sterilization 1 weight percent of glucose is added as a sterile 50% solution.
as §3, §4, §5, §6, §7

[5] = tested on: Streptococcus pyogenes At CC 86 68; test: Serial dilution test; format: cell-based; settings: Streptococcus pyogenes, ATCC8668, 18-20 hours at 37° C., read-out: MIC, S.D.T., Streptococcus pyogenes
Procedure: as §1, §8, §3, §4, §5, §6, §7

[6] = reduced growth at this concentration

| SMILES | MIC (Corynebacterium acnes) [µg/mL] | MIC [1] [µg/mL] | MIC [2] [µg/mL] | MIC (Aspergillus niger) [µg/mL] | G6PDH-inhibition Ed50, Immediate Inhibition [3] [µg/mL] | G6PDH-inhibition Ed50, Inhibition of Incubation [3] [µg/mL] | MIC [4] [µg/mL] | MIC (Streptococcus Aronson) [µg/mL] | MIC [5] [µg/mL] | Concentration with reduced growth (value in brackets), S.D.T., Candida albicans [1, 6] [µg/mL] | Concentration with reduced growth (value in brackets), S.D.T., Aspergillus niger (Aspergillus niger; [6]) [µg/mL] | Concentration with reduced growth (value in brackets), S.D.T., Corynebacterium acnes (Corynebacterium acnes; [6]) [µg/mL] |
| --- | --- | --- | --- | --- | --- | --- | --- | --- | --- | --- | --- | --- |
| O=C(c1ccc(O)cc1O)C(F)(F)F [A, 2,4-Dihydroxy-trifluoroacetophenone, reference compound] | 80 (≈ 388 µM) | 80 (≈ 388 µM) | 20 (≈ 97 µM) | 20 (≈ 97 µM) | > 50 | 33 | 1000 (≈ 4850 µM) | 80 (≈ 388 µM) | – | – | – | – |
| CCc1cc(C(=O)C(F)(F)F)c(O)cc1O [B, 5-Ethyl-2,4-dihydroxy-trifluoroacetophenone, reference compound] | 20 (≈ 85.4 µM) | 20 (≈ 85.4 µM) | 5 (≈ 21.4 µM) | 20 (≈ 85.4 µM) | 34.5 | 30 | 1000 (≈ 4270 µM) | 20 (≈ 85.4 µM) | 20 (≈ 85.4 µM) | – | – | – |
| CCc1c(O)ccc(C(=O)C(F)(F)F)c1O [C, 3-Ethyl-2,4-dihydroxy-trifluoroacetophenone, reference compound] | 1.25 (≈ 5.34 µM) | 20 (≈ 85.4 µM) | 1.25 (≈ 5.34 µM) | 5 (≈ 21.4 µM) | 37.5 | 20 | 1000 (≈ 4270 µM) | 5 (≈ 21.4 µM) | 1.25 (≈ 5.34 µM) | – | – | – |
| COc1ccc(C(=O)C(F)(F)F)c(OC)c1 [D, 2,4-Dimethoxy-trifluoroacetophenone, reference compound] | > 80 | > 80 | > 80 | > 80 | > 50 | > 50 | > 4000 | > 80 | > 80 | – | – | – |
| CC(C)Cc1c(O)ccc(C(=O)C(F)(F)F)c1O [F, 2,4-Dihydroxy-3-iso-butyl-trifluoroacetophenone] | 0.31 (≈ 1.18 µM) | 20 (≈ 76.3 µM) | 1.25 (≈ 4.77 µM) | 20 (≈ 76.3 µM) | 37.7 | 27.7 | 250 (≈ 953 µM) | 1.25 (≈ 4.77 µM) | 1.25 (≈ 4.77 µM) | – | – | – |
| CC1CCC(c2c(O)ccc(C(=O)C(F)(F)F)c2O)CC1 (stereo not drawn) [H, 2,4-Dihydroxy-3-(4'-methyl)-cyclohexyl-trifluoro-acetophenone] | 1.25 (≈ 4.14 µM) | – | 1.25 (≈ 4.14 µM) | – | – | – | 1000 (≈ 3310 µM) | 1.25 (≈ 4.14 µM) | 0.31 (≈ 1.03 µM) | 80 | 80 | – |
| CC(C)c1c(O)ccc(C(=O)C(F)(F)F)c1O [P, 2,4-Dihydroxy-3-isopropyl-trifluoroacetophenone] | 5 (≈ 20.1 µM) | – | – | – | 14.8 | 9.9 | – | 1.25 (≈ 5.04 µM) | 1.25 (≈ 5.04 µM) | – | – | 1.25 |
